# Key:
# [1] = system: SF-268; assay: Growth inhibition of human SF268 cells assessed as cell growth at 0.01 uM incubated for 48 hrs by sulforhodamine B assay relative to control; type: functional; details: SF-268, 48 h, read-out: Activity
# [2] = system: CCRF-CEM; assay: Growth inhibition of human CCRF-CEM cells assessed as cell growth at 0.1 uM incubated for 48 hrs by sulforhodamine B assay relative to control; type: functional; details: read-out: Activity
# [3] = system: NCI-H460; assay: Growth inhibition of human NCI-H460 cells assessed as cell growth at 1 uM incubated for 48 hrs by sulforhodamine B assay relative to control; type: functional; details: NCI-H460, 48 h, read-out: Activity
# [4] = system: SK-OV-3; assay: Growth inhibition of human SKOV3 cells assessed as cell growth at 100 uM incubated for 48 hrs by sulforhodamine B assay relative to control; type: functional; details: SK-OV-3, 48 h, read-out: Activity
# [5] = system: HCT-15; assay: Growth inhibition of human HCT15 cells assessed as cell growth at 0.01 uM incubated for 48 hrs by sulforhodamine B assay relative to control; type: functional; details: HCT-15, 48 h, read-out: Activity
# [6] = system: Malme-3M; assay: Growth inhibition of human MALME-3M cells incubated for 48 hrs by sulforhodamine B assay; type: functional, cell-based
# [7] = system: UO-31; assay: Growth inhibition of human UO31 cells assessed as cell growth at 0.1 uM incubated for 48 hrs by sulforhodamine B assay relative to control; type: functional; details: UO-31, 48 h, read-out: Activity
# [8] = system: ACHN; assay: Growth inhibition of human ACHN cells assessed as cell growth at 0.1 uM incubated for 48 hrs by sulforhodamine B assay relative to control; type: functional; details: read-out: Activity
# [9] = system: MDA-MB-231; assay: Growth inhibition of human MDA-MB-231 cells assessed as cell growth at 1 uM incubated for 48 hrs by sulforhodamine B assay relative to control; type: functional; details: MDA-MB-231, 48 h, read-out: Activity
# [10] = system: 786-0; assay: Growth inhibition of human 786-0 cells assessed as cell growth at 100 uM incubated for 48 hrs by sulforhodamine B assay relative to control; type: functional; details: 786-0, 48 h, read-out: Activity
# [11] = system: HCC 2998; assay: Growth inhibition of human HCC2998 cells assessed as cell growth at 0.01 uM incubated for 48 hrs by sulforhodamine B assay relative to control; type: functional; details: HCC 2998, 48 h, read-out: Activity
# [12] = system: MDA-MB-435; assay: Growth inhibition of human MDA-MB-435 cells assessed as cell growth at 1 uM incubated for 48 hrs by sulforhodamine B assay relative to control; type: functional; details: MDA-MB-435, 48 h, read-out: Activity
# [13] = system: CAKI-1; assay: Growth inhibition of human Caki1 cells incubated for 48 hrs by sulforhodamine B assay; type: functional, cell-based; details: CAKI-1, 48 h
# [14] = system: RPMI-8226; assay: Growth inhibition of human RPMI8226 cells incubated for 48 hrs by sulforhodamine B assay; type: functional, cell-based; details: RPMI-8226, 48 h
# [15] = system: MCF7; assay: Growth inhibition of human MCF7 cells assessed as cell growth at 0.1 uM incubated for 48 hrs by sulforhodamine B assay relative to control; type: functional; details: MCF7, 48 h, read-out: Activity
# [16] = system: MCF7; assay: Growth inhibition of human MCF7 cells assessed as cell growth at 100 uM incubated for 48 hrs by sulforhodamine B assay relative to control; type: functional; details: MCF7, 48 h, read-out: Activity
# [17] = system: ACHN; assay: Growth inhibition of human ACHN cells assessed as cell growth at 1 uM incubated for 48 hrs by sulforhodamine B assay relative to control; type: functional; details: read-out: Activity
# [18] = system: NCI-H322M; assay: Growth inhibition of human NCI-H322M cells incubated for 48 hrs by sulforhodamine B assay; type: functional, cell-based
# [19] = system: NCI-H322M; assay: Growth inhibition of human NCI-H322M cells assessed as cell growth at 1 uM incubated for 48 hrs by sulforhodamine B assay relative to control; type: functional; details: read-out: Activity
# [20] = system: HOP-62; assay: Growth inhibition of human HOP62 cells assessed as cell growth at 0.1 uM incubated for 48 hrs by sulforhodamine B assay relative to control; type: functional; details: HOP-62, 48 h, read-out: Activity
# [21] = system: SF-295; assay: Growth inhibition of human SF295 cells incubated for 48 hrs by sulforhodamine B assay; type: functional, cell-based; details: SF-295, 48 h
# [22] = system: NCI-H522; assay: Growth inhibition of human NCI-H522 cells assessed as cell growth at 1 uM incubated for 48 hrs by sulforhodamine B assay relative to control; type: functional; details: NCI-H522, 48 h, read-out: Activity
# [23] = system: NCI-H460; assay: Growth inhibition of human NCI-H460 cells assessed as cell growth at 100 uM incubated for 48 hrs by sulforhodamine B assay relative to control; type: functional; details: NCI-H460, 48 h, read-out: Activity
# [24] = system: OVCAR-8; assay: Growth inhibition of human OVCAR8 cells incubated for 48 hrs by sulforhodamine B assay; type: functional, cell-based; details: OVCAR-8, 48 h
# [25] = system: HCT-116; assay: Growth inhibition of human HCT116 cells assessed as cell growth at 1 uM incubated for 48 hrs by sulforhodamine B assay relative to control; type: functional; details: HCT-116, 48 h, read-out: Activity
# [26] = system: RPMI-8226; assay: Growth inhibition of human RPMI8226 cells assessed as cell growth at 0.01 uM incubated for 48 hrs by sulforhodamine B assay relative to control; type: functional; details: RPMI-8226, 48 h, read-out: Activity
# [27] = system: NCI-H460; assay: Growth inhibition of human NCI-H460 cells assessed as cell growth at 0.01 uM incubated for 48 hrs by sulforhodamine B assay relative to control; type: functional; details: NCI-H460, 48 h, read-out: Activity
# [28] = system: CAKI-1; assay: Growth inhibition of human Caki1 cells assessed as cell growth at 100 uM incubated for 48 hrs by sulforhodamine B assay relative to control; type: functional; details: CAKI-1, 48 h, read-out: Activity
# [29] = system: UO-31; assay: Growth inhibition of human UO31 cells assessed as cell growth at 100 uM incubated for 48 hrs by sulforhodamine B assay relative to control; type: functional; details: UO-31, 48 h, read-out: Activity
# [30] = read-out: LC50 (the source's name)
# [31] = read-out: pLC50 (the source's name) (converted)
structure (smiles),measurement,setting,value
COc1cc(Cl)cc(-c2nn(-c3cccc(NC(=O)c4cccc(C(F)(F)F)c4)c3)cc2-c2ccncc2)c1,growth at 0.01 µM,[1],101%
same,growth at 0.1 µM,[2],92%
same,growth at 1 µM,[3],93%
same,growth at 100 µM,[4],78%
same,growth at 0.01 µM,[5],56%
same,GI50,[6]; read-out: GI50,> 100 µM
same,CC50,[6]; [30],> 100 µM
same,TGI,[6]; read-out: TGI,> 100 µM
same,GI50,[6]; read-out: pGI50 (converted),> 100 µM
same,CC50,[6]; [31],> 100 µM
same,TGI,[6]; read-out: pTGI (converted),> 100 µM
same,growth at 0.1 µM,[7],88%
same,growth at 0.1 µM,[8],98%
same,growth at 1 µM,[9],58%
same,growth at 100 µM,[10],44%
same,growth at 0.01 µM,[11],108%
same,growth at 1 µM,[12],93%
same,GI50,[13]; read-out: GI50,3.58 µM
same,CC50,[13]; [30],> 100 µM
same,TGI,[13]; read-out: TGI,> 100 µM
same,GI50,[13]; read-out: pGI50 (converted),3.89 µM
same,CC50,[13]; [31],> 100 µM
same,TGI,[13]; read-out: pTGI (converted),> 100 µM
same,IC50,[14],3.13 µM
same,GI50,[14]; read-out: GI50,3.12 µM
same,CC50,[14]; [30],> 100 µM
same,TGI,[14]; read-out: TGI,> 100 µM
same,GI50,[14]; read-out: pGI50 (converted),3.16 µM
same,CC50,[14]; [31],> 100 µM
same,TGI,[14]; read-out: pTGI (converted),> 100 µM
same,growth at 0.1 µM,[15],92%
same,growth at 100 µM,[16],38%
same,growth at 1 µM,[17],54%
same,GI50,[18]; read-out: GI50,> 100 µM
same,CC50,[18]; [30],> 100 µM
same,TGI,[18]; read-out: TGI,> 100 µM
same,GI50,[18]; read-out: pGI50 (converted),> 100 µM
same,CC50,[18]; [31],> 100 µM
same,TGI,[18]; read-out: pTGI (converted),> 100 µM
same,growth at 1 µM,[19],90%
same,growth at 0.1 µM,[20],101%
same,CC50,[21]; [30],> 100 µM
same,TGI,[21]; read-out: TGI,> 100 µM
same,GI50,[21]; read-out: pGI50 (converted),3.89 µM
same,CC50,[21]; [31],> 100 µM
same,TGI,[21]; read-out: pTGI (converted),> 100 µM
same,growth at 1 µM,[22],54%
same,growth at 100 µM,[23],30%
same,GI50,[24]; read-out: GI50,5.58 µM
same,CC50,[24]; [30],> 100 µM
same,TGI,[24]; read-out: TGI,> 100 µM
same,GI50,[24]; read-out: pGI50 (converted),6.92 µM
same,CC50,[24]; [31],> 100 µM
same,TGI,[24]; read-out: pTGI (converted),> 100 µM
same,growth at 1 µM,[25],71%
same,growth at 0.01 µM,[26],101%
same,growth at 0.01 µM,[27],101%
same,growth at 100 µM,[28],21%
same,growth at 100 µM,[29],37%
COc1cc(Cl)cc(-c2nn(-c3cccc(NC(=O)Nc4cc(C(F)(F)F)cc(C(F)(F)F)c4)c3)cc2-c2ccncc2)c1,growth at 0.01 µM,[1],97%
same,growth at 0.1 µM,[2],84%
same,growth at 1 µM,[3],13%
same,growth at 100 µM,[4],-73%
same,growth at 0.01 µM,[5],93%
same,IC50,[6],0.53 µM
same,GI50,[6]; read-out: GI50,0.53 µM
same,CC50,[6]; [30],> 100 µM
same,TGI,[6]; read-out: TGI,3.57 µM
same,GI50,[6]; read-out: pGI50 (converted),0.537 µM
same,CC50,[6]; [31],> 100 µM
same,TGI,[6]; read-out: pTGI (converted),3.55 µM
same,growth at 0.1 µM,[7],75%
same,growth at 0.1 µM,[8],99%
same,growth at 1 µM,[9],29%
same,growth at 100 µM,[10],-70%
same,growth at 0.01 µM,[11],95%
same,growth at 1 µM,[12],22%
same,IC50,[13],0.42 µM
same,GI50,[13]; read-out: GI50,0.42 µM
same,TGI,[13]; read-out: TGI,4.75 µM
same,GI50,[13]; read-out: pGI50 (converted),0.417 µM
same,CC50,[13]; [31],61.7 µM
same,TGI,[13]; read-out: pTGI (converted),4.79 µM
same,IC50,[14],0.24 µM
same,GI50,[14]; read-out: GI50,0.238 µM
same,CC50,[14]; [30],> 100 µM
same,TGI,[14]; read-out: TGI,0.76 µM
same,GI50,[14]; read-out: pGI50 (converted),0.234 µM
same,CC50,[14]; [31],> 100 µM
same,TGI,[14]; read-out: pTGI (converted),0.759 µM
same,growth at 0.1 µM,[15],91%
same,growth at 100 µM,[16],-44%
same,growth at 1 µM,[17],17%
same,IC50,[18],0.93 µM
same,GI50,[18]; read-out: GI50,0.933 µM
same,TGI,[18]; read-out: TGI,10.9 µM
same,GI50,[18]; read-out: pGI50 (converted),0.933 µM
same,CC50,[18]; [31],46.8 µM
same,TGI,[18]; read-out: pTGI (converted),11 µM
same,growth at 1 µM,[19],49%
same,growth at 0.1 µM,[20],93%
same,IC50,[21],0.33 µM
same,GI50,[21]; read-out: GI50,0.332 µM
same,CC50,[21]; [30],0.0637 µM
same,TGI,[21]; read-out: TGI,1.44 µM
same,GI50,[21]; read-out: pGI50 (converted),0.331 µM
same,CC50,[21]; [31],6.31 µM
same,TGI,[21]; read-out: pTGI (converted),1.45 µM
same,growth at 1 µM,[22],18%
same,growth at 100 µM,[23],-84%
same,IC50,[24],0.39 µM
same,GI50,[24]; read-out: GI50,0.391 µM
same,TGI,[24]; read-out: TGI,2.19 µM
same,GI50,[24]; read-out: pGI50 (converted),0.389 µM
same,CC50,[24]; [31],47.9 µM
same,TGI,[24]; read-out: pTGI (converted),2.19 µM
same,growth at 1 µM,[25],7%
same,growth at 0.01 µM,[26],93%
same,growth at 0.01 µM,[27],101%
same,growth at 100 µM,[28],-61%
same,growth at 100 µM,[29],-82%

# From ChEMBL document CHEMBL4308841, “Synthesis, in vitro antiproliferative activity, and kinase inhibitory effects of pyrazole-containing diarylureas and diarylamides” (Eur J Med Chem, 2018)
